Reference: paper doi:10.1101/2023.11.24.568596v1 (biorxiv, 2023)

Key:
Conditions in all cases: binder
Haspin = biological target: T1, Haspin (Homo sapiens, UniProt Q8TF76)
T1 sequence (Q8TF76 1-798): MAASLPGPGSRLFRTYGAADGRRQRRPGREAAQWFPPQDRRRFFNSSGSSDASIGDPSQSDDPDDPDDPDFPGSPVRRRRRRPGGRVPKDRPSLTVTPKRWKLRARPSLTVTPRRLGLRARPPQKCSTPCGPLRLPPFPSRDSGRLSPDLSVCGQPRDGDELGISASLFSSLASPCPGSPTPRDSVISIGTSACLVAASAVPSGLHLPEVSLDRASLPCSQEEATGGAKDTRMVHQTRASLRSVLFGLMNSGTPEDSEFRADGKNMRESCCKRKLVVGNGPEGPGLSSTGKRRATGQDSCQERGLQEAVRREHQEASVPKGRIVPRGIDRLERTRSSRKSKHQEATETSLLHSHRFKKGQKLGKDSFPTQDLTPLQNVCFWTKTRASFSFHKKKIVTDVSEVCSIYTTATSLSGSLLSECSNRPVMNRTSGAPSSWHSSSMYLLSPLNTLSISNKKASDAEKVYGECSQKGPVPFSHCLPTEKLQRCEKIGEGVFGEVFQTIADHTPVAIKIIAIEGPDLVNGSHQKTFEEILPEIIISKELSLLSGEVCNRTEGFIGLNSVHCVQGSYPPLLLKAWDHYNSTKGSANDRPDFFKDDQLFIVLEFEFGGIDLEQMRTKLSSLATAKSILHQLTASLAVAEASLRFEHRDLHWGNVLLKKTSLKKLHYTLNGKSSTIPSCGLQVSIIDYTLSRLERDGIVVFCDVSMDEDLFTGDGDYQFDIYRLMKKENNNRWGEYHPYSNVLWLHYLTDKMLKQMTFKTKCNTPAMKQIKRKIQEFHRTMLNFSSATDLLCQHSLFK

FES = FES (Homo sapiens, UniProt P07332)
NEK1 = biological target: T2, NEK1 (Homo sapiens, UniProt Q96PY6)
T2 sequence (Q96PY6 1-1258): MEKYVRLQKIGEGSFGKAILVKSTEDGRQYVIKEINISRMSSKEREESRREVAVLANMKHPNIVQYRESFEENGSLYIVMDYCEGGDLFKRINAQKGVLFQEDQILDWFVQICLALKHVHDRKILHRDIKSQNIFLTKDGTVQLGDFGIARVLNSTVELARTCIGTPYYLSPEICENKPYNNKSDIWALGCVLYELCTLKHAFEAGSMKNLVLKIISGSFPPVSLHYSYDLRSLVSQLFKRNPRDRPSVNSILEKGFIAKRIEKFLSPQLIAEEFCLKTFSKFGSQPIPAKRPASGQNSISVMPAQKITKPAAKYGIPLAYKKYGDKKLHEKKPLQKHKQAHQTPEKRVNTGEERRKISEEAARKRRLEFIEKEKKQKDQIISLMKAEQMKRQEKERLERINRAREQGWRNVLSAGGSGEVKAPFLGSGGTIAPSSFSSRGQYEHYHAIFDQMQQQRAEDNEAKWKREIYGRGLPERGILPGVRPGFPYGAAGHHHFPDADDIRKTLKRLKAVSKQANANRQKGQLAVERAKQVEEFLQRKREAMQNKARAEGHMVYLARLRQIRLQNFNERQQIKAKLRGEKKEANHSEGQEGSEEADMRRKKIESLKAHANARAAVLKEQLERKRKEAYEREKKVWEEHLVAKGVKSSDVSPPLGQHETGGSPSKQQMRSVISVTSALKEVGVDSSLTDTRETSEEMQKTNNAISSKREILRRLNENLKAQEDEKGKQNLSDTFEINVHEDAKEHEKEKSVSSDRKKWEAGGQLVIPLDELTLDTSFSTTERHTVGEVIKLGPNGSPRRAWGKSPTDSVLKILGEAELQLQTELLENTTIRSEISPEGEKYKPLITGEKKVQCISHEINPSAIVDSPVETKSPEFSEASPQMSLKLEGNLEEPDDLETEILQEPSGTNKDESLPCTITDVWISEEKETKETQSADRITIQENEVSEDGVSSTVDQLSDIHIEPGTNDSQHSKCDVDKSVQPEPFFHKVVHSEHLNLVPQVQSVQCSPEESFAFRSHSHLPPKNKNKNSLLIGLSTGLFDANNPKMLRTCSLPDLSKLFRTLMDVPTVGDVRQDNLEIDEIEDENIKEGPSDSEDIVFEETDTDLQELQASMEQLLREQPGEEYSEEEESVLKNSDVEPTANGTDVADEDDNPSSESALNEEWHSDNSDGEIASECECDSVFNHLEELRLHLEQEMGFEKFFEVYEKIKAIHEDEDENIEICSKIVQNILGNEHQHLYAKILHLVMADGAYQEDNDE

CK1d = CK1d (Homo sapiens, UniProt P48730)
Chain of CK1d (P48730 whole entry): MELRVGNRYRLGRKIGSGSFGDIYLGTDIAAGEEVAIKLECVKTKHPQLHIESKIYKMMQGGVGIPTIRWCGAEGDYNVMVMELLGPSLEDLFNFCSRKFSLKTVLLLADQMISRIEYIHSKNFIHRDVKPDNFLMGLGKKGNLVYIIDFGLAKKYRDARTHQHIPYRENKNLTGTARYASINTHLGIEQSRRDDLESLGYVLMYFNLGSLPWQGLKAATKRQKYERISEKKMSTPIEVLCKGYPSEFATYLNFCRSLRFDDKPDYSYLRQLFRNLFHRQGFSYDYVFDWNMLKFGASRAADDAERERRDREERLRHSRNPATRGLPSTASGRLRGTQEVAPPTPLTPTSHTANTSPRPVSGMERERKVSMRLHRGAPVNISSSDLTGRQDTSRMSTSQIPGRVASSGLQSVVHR

Chain of FES (P07332 whole entry): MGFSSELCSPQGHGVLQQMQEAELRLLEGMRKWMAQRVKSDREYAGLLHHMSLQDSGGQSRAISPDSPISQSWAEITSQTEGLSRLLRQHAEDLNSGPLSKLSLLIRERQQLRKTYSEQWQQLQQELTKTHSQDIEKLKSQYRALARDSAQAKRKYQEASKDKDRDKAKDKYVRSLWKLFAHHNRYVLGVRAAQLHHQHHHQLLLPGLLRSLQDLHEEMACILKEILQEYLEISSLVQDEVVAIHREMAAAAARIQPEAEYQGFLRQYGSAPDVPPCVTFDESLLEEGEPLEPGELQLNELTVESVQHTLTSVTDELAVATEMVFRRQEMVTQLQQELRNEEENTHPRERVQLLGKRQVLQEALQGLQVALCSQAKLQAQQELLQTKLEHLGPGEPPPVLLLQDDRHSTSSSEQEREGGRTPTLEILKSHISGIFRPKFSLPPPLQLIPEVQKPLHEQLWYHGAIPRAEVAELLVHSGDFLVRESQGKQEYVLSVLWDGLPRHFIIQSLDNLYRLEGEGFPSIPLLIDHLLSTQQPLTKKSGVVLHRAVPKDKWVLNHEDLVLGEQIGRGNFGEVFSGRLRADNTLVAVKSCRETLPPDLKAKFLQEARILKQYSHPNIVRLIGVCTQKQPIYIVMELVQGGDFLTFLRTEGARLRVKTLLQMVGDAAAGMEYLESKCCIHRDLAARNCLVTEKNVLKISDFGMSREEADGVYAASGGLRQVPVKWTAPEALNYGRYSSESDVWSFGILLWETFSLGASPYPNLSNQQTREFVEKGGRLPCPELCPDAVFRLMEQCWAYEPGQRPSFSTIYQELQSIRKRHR

## Cc1cccc(-c2ccc(-c3cc4cnc(NCCCN5CCCC5=O)nc4n(CCCCN)c3=O)c(Cl)c2)n1 [compound 27, MR30]
Haspin
  ΔTm MR30 (27): -0.7 °C
FES
  ΔTm MR30 (27): 5.0 °C
NEK1
  ΔTm MR30 (27): -0.3 °C
CK1d
  ΔTm MR30 (27): 1.6 °C

## Cc1cccc(-c2ccc(-c3cc4cnc(Nc5cc(C(F)(F)F)ccc5C)nc4n(CCCCN)c3=O)c(Cl)c2)n1 [compound 28, 8-(4-Aminobutyl)-6-(2-chloro-4-(6-methylpyridin-2-yl)phenyl)-2-((2-methyl-5-(trifluoromethyl)phenyl)amino)pyrido[2,3-d]pyrimidin-7(8H)-one]
Haspin
  ΔTm 28: -1.3 °C
FES
  ΔTm 28: 8.5 °C
NEK1
  ΔTm 28: 0.2 °C
CK1d
  ΔTm 28: 1.4 °C

## Cc1cccc(-c2ccc(-c3cc4cnc(NCCCN5CCNCC5)nc4n(CCCCN)c3=O)c(Cl)c2)n1 [compound 29, 8-(4-Aminobutyl)-6-(2-chloro-4-(6-methylpyridin-2-yl)phenyl)-2-((3-(piperazin-1-yl)propyl)amino)pyrido[2,3-d]pyrimidin-7(8H)-one]
Haspin
  ΔTm 29: -1.2 °C
FES
  ΔTm 29: 6.0 °C
NEK1
  ΔTm 29: 0.3 °C
CK1d
  ΔTm 29: 1.3 °C

## Cc1cccc(-c2ccc(-c3cc4cnc(Nc5ccc(CCCO)cc5)nc4n(CCCCN)c3=O)c(Cl)c2)n1 [compound 30, 8-(4-Aminobutyl)-6-(2-chloro-4-(6-methylpyridin-2-yl)phenyl)-2-((4-(3-hydroxypropyl)phenyl)amino)pyrido[2,3-d]pyrimidin-7(8H)-one]
Haspin
  ΔTm 30: 0.4 °C
FES
  ΔTm 30: 9.1 °C
NEK1
  ΔTm 30: -3.1 °C
CK1d
  ΔTm 30: 2.8 °C

## Cc1cccc(-c2ccc(-c3cc4cnc(Nc5ccc(O)cc5)nc4n(CCCCN)c3=O)c(Cl)c2)n1 [compound 31, 8-(4-Aminobutyl)-6-(2-chloro-4-(6-methylpyridin-2-yl)phenyl)-2-((4-hydroxyphenyl)amino) pyrido[2,3-d]pyrimidin-7(8H)-one]
Haspin
  ΔTm 31: -0.4 °C
FES
  ΔTm 31: 8.7 °C
NEK1
  ΔTm 31: -3.3 °C
CK1d
  ΔTm 31: 2.8 °C

## Cc1cccc(-c2ccc(-c3cc4cnc(Nc5ccc(C)c(O)c5)nc4n(CCCCN)c3=O)c(Cl)c2)n1 [compound 32, 8-(4-Aminobutyl)-6-(2-chloro-4-(6-methylpyridin-2-yl)phenyl)-2-((3-hydroxy-4-methylphenyl)amino)pyrido[2,3-d]pyrimidin-7(8H)-one]
Haspin
  ΔTm 32: -1.5 °C
FES
  ΔTm 32: 8.8 °C
NEK1
  ΔTm 32: -3.0 °C
CK1d
  ΔTm 32: 2.3 °C
